Measurements: US4220714A, “Composition for inhibiting adenylate-kinase and its use” (priority 1977, dated 1980)

Columns and labels:
[1] = system: adenylate kinase; settings: erythrocyte AK; agent used alone (AMP without fluoride, fluoride without AMP); FIG. 1, 2
Procedure: Normal and abnormal sera (from myocardial infarct) and the haemolysate from human erythrocytes were used as sources of CK and of AK.
The AK activity was determined according to the method by Szasz et al. (Clin. Chem., 22, 1806, (1976)). […] A spectrophotometer, Beckman-25 with basin-supporting cradle and thermostat, was used. The reaction temperature for determining both AK and CK was 37° C.

[2] = system: creatine kinase from serum; test: Creatine kinase (CK) activity from serum, coupled HK/G-6-PD reaction at 340 nm; type: biochemical, human; settings: FIG. 3
From the text: Each value represent the average of five independent readings.
All the CK activities were corrected by allowing for the AK activity.
The same samples were used both for AMP and the fluoride. The ordinates report the percentage relative to the inhibition of the creatine kinase and the abscissae indicate the concentrations of AMP, or fluoride, in millimols per liter, in FIG. 3.

[3] = biological target: T1, erythrocyte AK (Homo sapiens, UniProt P00568); test: CK determination in normal sera without and with added erythrocyte AK; type: biochemical; settings: AMP only at 5 millimols per liter
T1 construct: the haemolysate from human erythrocytes; from tissue; host or cells: human erythrocytes (haemolysate)
T1 sequence (P00568 1-194): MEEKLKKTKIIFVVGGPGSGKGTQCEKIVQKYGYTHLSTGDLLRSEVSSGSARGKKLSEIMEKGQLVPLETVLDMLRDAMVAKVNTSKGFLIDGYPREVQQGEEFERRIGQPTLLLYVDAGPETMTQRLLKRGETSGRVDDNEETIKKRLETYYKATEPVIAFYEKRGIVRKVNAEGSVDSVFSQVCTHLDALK
From the text: Such samples have been analyzed with the method described herein and with that which uses AMP at 5 millimols per liter.

[4] = system: CK; settings: AMP at 5 to 10 times the ADP concentration; cited from earlier work

| Structure (SMILES) | concentration at which 95% of inhibition of AK is attained [1] | inhibition of CK activity ([2]; fluoride at 25 millimols per liter) | excess of CK values of samples with erythrocyte AK over normal samples [3] | difference in CK activity between normal samples and samples with added erythrocyte AK ([3]; P less than 0.01) | inhibition of CK activity ([2]; AMP at 20 millimols per liter) | inhibition of the activity of the CK [4] |
| --- | --- | --- | --- | --- | --- | --- |
| [F-].[K+] [fluoride, potassium fluoride] | 25 millimols per liter | ≥ 4% | – | – | – | – |
| Nc1ncnc2c1ncn2[C@@H]1O[C@H](COP(=O)(O)O)[C@@H](O)[C@H]1O [AMP, adenosine-5'-monophosphate] | more than 20 millimols per liter | – | about 50% | most significant difference | more than 10% | slightly inhibits |
